{
  "source": "paper PMC5430839",
  "about": "“Deciphering the mode of action of cell wall-inhibiting antibiotics using metabolic labeling of growing peptidoglycan in Streptococcus pyogenes” (Scientific Reports, 2017)",
  "data": [
    {"test_system": "S. pyogenes strain JRS4", "test": "Determination of subbacteriostatic concentrations (growth curve, OD600)", "type": "cell-based, Streptococcus pyogenes", "conditions": "minimum dose at which growth curve plateaus at OD600 <1.0 after 4-h incubation at 37 °C, THY, added at OD600 0.4", "protocol": "(§1) S. pyogenes strain JRS4 (M6^+ F1^+) was grown in Todd-Hewitt broth supplemented with 0.3% yeast extract (THY) at 37 °C.\nS. pyogenes were grown in THY to an OD600 of 0.4 (exponential phase) at 37 °C and then added a solution of antibiotic of varying concentration. The culture mixture was further incubated for 4 h at 37 °C. Subbacteriostatic concentration in this study is the minimum dose of antibiotic that makes growth curve reach a plateau at OD600 of <1.0 after the 4-h incubation. In the absence of antibiotics, GAS cells grew up to OD600 of approximately 1.6. Subbacteriostatic concentrations were determined for each antibiotic, and mode-of-action analyses were performed at these concentrations (Figs 2, 3, 4, 5, 6 and 7).", "units": {"subbacteriostatic concentration": "µg/mL"}, "values": [
      {"compound": "Ramoplanin", "subbacteriostatic concentration": 2},
      {"compound": "Flavomycin", "subbacteriostatic concentration": 1},
      {"compound": "chlorobiphenyl vancomycin [CBPV]", "subbacteriostatic concentration": 0.25},
      {"compound": "Cc1onc(-c2ccccc2)c1C(=O)N[C@@H]1C(=O)N2[C@@H]1SC(C)(C)[C@@H]2C(=O)O", "note": "[Oxacillin]", "subbacteriostatic concentration": 4},
      {"compound": "Bacitracin", "subbacteriostatic concentration": 4},
      {"compound": "N[C@@H]1CON=C1O", "note": "[D-Cycloserine]", "subbacteriostatic concentration": 100},
      {"compound": "Vancomycin", "subbacteriostatic concentration": 4},
      {"compound": "des-N-methylleucyl chlorobiphenyl vancomycin [ΔNCBPV]", "subbacteriostatic concentration": 3}
    ]},
    {"test_system": "S. pyogenes strain JRS4", "test": "Live cell labeling with sortase A substrate in the presence of antibiotics: phenotype and cell size distribution", "type": "cell-based, Streptococcus pyogenes", "conditions": "not given", "description": "(§2) Streptococcal cell wall synthesis consists of cylindrical peripheral synthesis and septal synthesis (Fig. 1A). A study using Streptococcus pneumoniae illustrated that the serine-threonine kinase StkP controls the switch from peripheral synthesis to septal synthesis. Splitting of the septum (cell separation) is then mediated by the action of autolysin. We labeled the GAS cell wall using the sortase method in the absence of antibiotics, and the observed labeling patterns of GAS were classified into three phenotypes (Fig. 1A–C). Phenotype A cells are newly divided cells without specific fluorescent labeling. Phenotype B cells are in the peripheral growth stage. A characteristic two-elongated-dot image or an open ring corresponds to peripheral growth near the bacterial division site. Phenotype C cells are in the septal growth stage, and the dividing septum is fluorescently stained. The distribution (%) of phenotypes A, B, and C among cells was 37 ± 2, 47 ± 2, and 16 ± 1, respectively, in log-phase GAS. Data represent the mean ± sem (n = 3). Subsequently, we constructed a histogram of each phenotype population as a function of bacterial cell length, as defined in Fig. 1C (orange, Fig. 1D). The subpopulation of cells with a specific phenotype is overlaid on the total cell size distribution (blue). […] The histograms also illustrate that cells grow from phenotype A, through phenotype B, to phenotype C (followed by cell separation), confirming that peripheral growth precedes septal growth in GAS. We speculated that the changes of this histogram would provide information on antibiotic modes of action.\nas §1\n(§3) Bacterial cells grown in THY to an OD600 of 0.35–0.4 (exponential phase) at 37 °C were exposed to antibiotics and incubated for 1 h, and 100-μL aliquots of culture mixture were taken and added to a solution of sortase substrate (FL-KLPETG-NH2, final concentration = 1 mM). After incubation for 2.5 h at 37 °C in the dark, Nile Red (10 μg/mL) and DAPI (1 μg/mL) were added. The mixture was allowed to stand for 30 min and then centrifuged (12,000 rpm, 2 min, 4 °C). The supernatant was removed, and the pellet was washed thrice with PBS buffer to remove unreacted sortase substrate. Cells were re-suspended in PBS buffer, mounted on a glass slide, and examined by fluorescent microscopy. Images were analyzed manually using ImageJ software (ver. 1.50). Sets of axial- and equatorial-length were also recorded for each cell. At least 200 cells were analyzed in each analysis. All experiments were performed at least thrice, and representative results are shown.", "units": {"proportion of cells, phenotype B (peripheral growth)": "%", "proportion of cells, phenotype C (septal growth)": "%", "proportion of cells, phenotype D′ (multiple peripheral growth sites, axially elongated)": "%"}, "values": [
      {"compound": "des-N-methylleucyl chlorobiphenyl vancomycin [ΔNCBPV]", "proportion of cells, phenotype B (peripheral growth)": "45 ± 12", "proportion of cells, phenotype C (septal growth)": "17 ± 8", "proportion of cells, phenotype D′ (multiple peripheral growth sites, axially elongated)": "24 ± 3"}
    ]},
    {"test_system": "S. pyogenes strain JRS4", "test": "Live cell labeling with sortase A substrate in the presence of antibiotics: phenotype and cell size distribution", "type": "cell-based, Streptococcus pyogenes", "conditions": "antibiotic at subbacteriostatic conc.; mean ± sem, n = 3", "description": "as §2, §1, §3", "units": {"proportion of cells, phenotype A (no active cell wall synthesis)": "%", "proportion of cells, phenotype B (peripheral growth)": "%", "proportion of cells, phenotype C (septal growth)": "%", "proportion of cells, phenotype D (multiple septa in an elongated cell)": "%", "proportion of cells, phenotype D′ (multiple peripheral growth sites, axially elongated)": "%"}, "values": [
      {"compound": "Ramoplanin", "proportion of cells, phenotype A (no active cell wall synthesis)": "27 ± 3", "proportion of cells, phenotype B (peripheral growth)": "50 ± 4", "proportion of cells, phenotype C (septal growth)": "23 ± 5"},
      {"compound": "Flavomycin", "proportion of cells, phenotype A (no active cell wall synthesis)": "4 ± 1", "proportion of cells, phenotype B (peripheral growth)": "20 ± 6", "proportion of cells, phenotype C (septal growth)": "22 ± 2", "proportion of cells, phenotype D (multiple septa in an elongated cell)": "54 ± 5"},
      {"compound": "chlorobiphenyl vancomycin [CBPV]", "proportion of cells, phenotype A (no active cell wall synthesis)": "20 ± 1", "proportion of cells, phenotype B (peripheral growth)": "58 ± 6", "proportion of cells, phenotype C (septal growth)": "9 ± 2", "proportion of cells, phenotype D′ (multiple peripheral growth sites, axially elongated)": "13 ± 4"},
      {"compound": "Cc1onc(-c2ccccc2)c1C(=O)N[C@@H]1C(=O)N2[C@@H]1SC(C)(C)[C@@H]2C(=O)O", "note": "[Oxacillin]", "proportion of cells, phenotype A (no active cell wall synthesis)": "19 ± 4", "proportion of cells, phenotype B (peripheral growth)": "60 ± 4", "proportion of cells, phenotype C (septal growth)": "12 ± 5", "proportion of cells, phenotype D (multiple septa in an elongated cell)": "9 ± 2"},
      {"compound": "N[C@@H]1CON=C1O", "note": "[D-Cycloserine]", "proportion of cells, phenotype A (no active cell wall synthesis)": "25 ± 6", "proportion of cells, phenotype B (peripheral growth)": "68 ± 7", "proportion of cells, phenotype C (septal growth)": "2 ± 1", "proportion of cells, phenotype D (multiple septa in an elongated cell)": "5 ± 1"},
      {"compound": "Vancomycin", "proportion of cells, phenotype A (no active cell wall synthesis)": "34 ± 4", "proportion of cells, phenotype B (peripheral growth)": "49 ± 4", "proportion of cells, phenotype C (septal growth)": "17 ± 1"},
      {"compound": "des-N-methylleucyl chlorobiphenyl vancomycin [ΔNCBPV]", "proportion of cells, phenotype A (no active cell wall synthesis)": "14 ± 1"}
    ]},
    {"test_system": "S. pyogenes strain JRS4", "test": "Live cell labeling with sortase A substrate in the presence of antibiotics: phenotype and cell size distribution", "type": "cell-based, Streptococcus pyogenes", "conditions": "antibiotic at subbacteriostatic conc.; n = 55 (CBPV), 114 (flavomycin), 105 (ΔNCBPV) cells", "description": "as §2, §1, §3", "units": {"cells with one or more completed septa among cells with multiple division sites": "%"}, "values": [
      {"compound": "Flavomycin", "cells with one or more completed septa among cells with multiple division sites": 98},
      {"compound": "chlorobiphenyl vancomycin [CBPV]", "cells with one or more completed septa among cells with multiple division sites": 4},
      {"compound": "des-N-methylleucyl chlorobiphenyl vancomycin [ΔNCBPV]", "cells with one or more completed septa among cells with multiple division sites": 52}
    ]},
    {"test_system": "S. pyogenes strain JRS4", "test": "Imaging of peripheral growth by FDAA pre-labeling in D-cycloserine/oxacillin-treated cells", "type": "cell-based, Streptococcus pyogenes", "conditions": "FDAA pre-labeling 1 h, then antibiotic 3 h", "description": "The observed enlargement of cells implied that cell wall synthesis could proceed, at least partly, in the presence of these antibiotics at their subbacteriostatic concentrations. We therefore studied the relationship between peripheral growth length and axial length for cells via dual-color staining. Nile red was used to stain the bacterial cell membrane, and the fluorescent D-amino acid (FDAA) labeling[10]–[12] was employed for old cell wall (preexisting prior to antibiotic treatment). In the presence of antibiotic, peripheral growth length was measured as a gap between the old (stained) regions of the preexisting cell wall (Fig. 5A and B).\nBacterial cells grown in THY to an OD600 of 0.2 (exponential phase) at 37 °C, and 100-μL aliquots of culture mixture were taken (Fig. 5). FDAA solution (final concentration = 1 mM; FL-D-Lys for Fig. 5A and E, tetramethylrhodamine- D-Lys for Fig. 5D) was added, and the mixture was incubated for 1 h at 37 °C in the dark. The mixture was centrifuged (12,000 rpm, 2 min, 4 °C), the supernatant was removed, and the pellet was washed with PBS buffer thrice to remove unreacted FDAA. Cells were re-suspended in 100-μL THY and incubated at 37 °C in the dark with antibiotics for 2.5 h. […]", "values": [
      {"compound": "Cc1onc(-c2ccccc2)c1C(=O)N[C@@H]1C(=O)N2[C@@H]1SC(C)(C)[C@@H]2C(=O)O", "note": "[Oxacillin]", "peripheral growth/axial length relationship (dot blot analysis)": "peripheral growth barely contributed to cell enlargement"},
      {"compound": "N[C@@H]1CON=C1O", "note": "[D-Cycloserine]", "peripheral growth/axial length relationship (dot blot analysis)": "considerably larger than that of oxacillin-treated cells"}
    ]},
    {"test_system": "gram-positive strains", "test": "not given", "conditions": "ref many studies; cited from earlier work", "values": [
      {"compound": "des-N-methyl-leucyl-vancomycin", "antibacterial activity": "totally loses its antibacterial activity"}
    ]}
  ]
}
